Here are results for seven compounds from patent US10807952B2 (Achillion Pharmaceuticals, Inc., priority 2015, dated 2020).

Human Factor D, sequence (P00746 26-253): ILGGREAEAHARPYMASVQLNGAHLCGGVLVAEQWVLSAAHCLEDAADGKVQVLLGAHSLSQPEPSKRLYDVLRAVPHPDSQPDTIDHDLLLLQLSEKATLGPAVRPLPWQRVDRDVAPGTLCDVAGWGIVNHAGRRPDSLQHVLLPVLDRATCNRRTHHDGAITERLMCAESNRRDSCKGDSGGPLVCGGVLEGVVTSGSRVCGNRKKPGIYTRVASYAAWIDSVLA

The first test concerns the target Human Factor D (Homo sapiens (Human), UniProt P00746). As to the kind of experiment: Human Factor D assay (Z-L-Lys-SBzl / DTNB, absorbance at 405 nm). The test is classed as biochemical. The following applies: Table 3; Human Factor D 80 nM, assay of Example 13. The method, boiled down: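 Human serum-purified Factor D (80 nM final) was preincubated with compound for 5 min at room temperature in 50 mM Tris, 1M NaCl, pH 7.5. IC50 came from nonlinear regression of rate versus compound concentration.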
On to `O=C(Nc1cccc(-c2ccccc2Cl)c1F)[C@@H]1C[C@@H](F)CN1C(=O)Cc1cccc(Br)n1` [Compound 41, (2S,4R)-1-(2-(6-bromopyridin-2-yl)acetyl)-N-(2′-chloro-2-fluorobiphenyl-3-yl)-4-fluoropyrrolidine-2-carboxamide], for which the IC50 (usually the concentration needed to halve the response being measured) is 1000 to 10000 nM.
The same measure, in the same setting: the result for `NC(=O)c1nn(CC(=O)N2C[C@H](F)C[C@H]2C(=O)Nc2cccc(-c3ccccc3Cl)c2F)c2cc(S(F)(F)(F)(F)F)ccc12` [Compound 45] reads below 1000 nM.
`COc1cc(Br)cc(CC(=O)N2C[C@H](F)C[C@H]2C(=O)Nc2cccc(-c3ccccc3Cl)c2F)c1` [Compound 48, (2S,4R)-1-(2-(3-bromo-5-methoxyphenyl)acetyl)-N-(2′-chloro-2-fluorobiphenyl-3-yl)-4-fluoropyrrolidine-2-carboxamide] yielded an IC50 below 1000 nM.
Still for that read-out and setting: in the case of `NC(=O)c1nn(CC(=O)N2C[C@H](F)C[C@H]2C(=O)Nc2cccc(-c3ccc4[nH]c(C(F)(F)F)nc4c3Cl)c2F)c2ccccc12` [Compound 9, 1-(2-((2S,4R)-2-(3-(4-chloro-2-(trifluoromethyl)-1H-benzo[d]imidazol-5-yl)-2-fluorophenyl-carbamoyl)-4-fluoropyrrolidin-1-yl)-2-oxoethyl)-1H-indazole-3-carboxamide] it was below 1000 nM.

The same test, now with this note: Table 4; Human Factor D 80 nM, assay of Example 13.
`NC(=O)c1nn(CC(=O)N2C[C@H](F)C[C@H]2C(=O)Nc2cccc(-c3ccc4c(c3)C(=O)CCC4)c2F)c2ccccc12` [Compound 93, 1-(2-((2S,4R)-4-fluoro-2-((2-fluoro-3-(8-oxo-5,6,7,8-tetrahydronaphthalen-2-yl)phenyl)carbamoyl)pyrrolidin-1-yl)-2-oxoethyl)-1H-indazole-3-carboxamide] displayed an IC50 below 1000 nM.
Same read-out and setting: in the case of `Cc1c(Br)c(C(N)=O)nn1CC(=O)N1C[C@H](F)C[C@H]1C(=O)Nc1cccc(Br)n1` [Compound 107, 4-Bromo-1-(2-((2S,4R)-2-((6-bromopyridin-2-yl)carbamoyl)-4-fluoropyrrolidin-1-yl)-2-oxoethyl)-5-methyl-1H-pyrazole-3-carboxamide] it was 1000 to 10000 nM.
`CC(=O)c1nn(CC(=O)N2C[C@H](F)C[C@H]2C(=O)Nc2cccc(-c3ccc4sc(N)nc4c3)c2F)c2ccccc12` [Compound 100, (2S,4R)-1-(2-(3-acetyl-1H-indazol-1-yl)acetyl)-N-(3-(2-aminobenzo[d]thiazol-5-yl)-2-fluorophenyl)-4-fluoropyrrolidine-2-carboxamide] had an IC50 below 1000 nM.
